These results are taken from patent publication US5223486A, “Inhibition of cancer procoagulant” (University Research Corporation, priority 1991, dated 1993).

Read-outs that look alike come from different tables or passages of the source. Where a SMILES comes first, the peptide text is derived from it. [ ]: non-standard residue; d: D form. The star is where a group is joined. ξ: configuration not given here. ξF = NC(Cc1ccccc1)C(=O)O; Cbz = O=C(OCc1ccccc1)*; ξV = CC(C)C(N)C(=O)O; CHN2 = [N-]=[N+]=C*; ξP = O=C(O)C1CCCN1; tBu = CC(C)(C)*

In experiment [1] the test system is small cell carcinoma of the lung. To be noted: patients with small cell carcinoma of the lung; cited from earlier work.
Experiment [2] relates to nonsmall cell lung cancer. The conditions noted are these: patients with nonsmall cell lung cancer limited to one hemithorax; cited from earlier work.
In experiment [3] the target is T1, rabbit brain thromboplastin, a tissue factor (TF) standard (Oryctolagus cuniculus, UniProt P24055).
T1 construct: rabbit brain thromboplastin, a tissue factor (TF) standard; purchased Sigma Chemical Co. (St. Louis, MO); host or cells: rabbit brain
T1 sequence (P24055 33-292): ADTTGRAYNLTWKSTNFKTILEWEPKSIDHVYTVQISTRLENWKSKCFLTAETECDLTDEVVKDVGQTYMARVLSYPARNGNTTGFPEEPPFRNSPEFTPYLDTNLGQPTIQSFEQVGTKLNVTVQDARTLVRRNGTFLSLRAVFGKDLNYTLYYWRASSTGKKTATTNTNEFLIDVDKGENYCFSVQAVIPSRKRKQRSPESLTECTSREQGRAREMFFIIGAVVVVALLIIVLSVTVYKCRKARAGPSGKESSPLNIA
The experiment in a line: one-stage plasma recalcification clotting time assay, TF control procoagulant. Format: biochemical. To be noted: 30 min at 25° C.; for inhibition of TF: 200 μM peptidyl diazomethyl ketone; for enhancement of TF activity (negative inhibition): 400 μM peptidyl sulfonium salt. The protocol:
The procoagulant activity of the samples and the controls was measured in a one-stage plasma recalcification clotting time assay using a model 202A clot timer (Heller Laboratories, Santa Rose, CA). […] If the volume of the sample was too small, 0.05 ml of the sample was used with proportional reduction in the volume of the other reagents. […] These dilutions of RVV were used to calibrate the assay plasma and to verify linearity of the clotting times over the range of procoagulant activity.
(§1) The procoagulant activity of the samples was expressed as clotting time in seconds or as the percent activity, calculated as the percent reduction of clotting time (CT) from the corresponding buffer blank [(blank time (sec)-sample clotting time (sec))/ blank time (sec)]×100. The percent inhibition of the control and experimental procoagulants by the peptidyl diazomethyl ketone and peptidyl sulfonium salt inhibitors was expressed as the percent increase in the clotting time compared with the uninhibited sample [(inhibited CT-uninhibited CT)/uninhibited CT]×100.
(§2) Papain, a factor X activator and cysteine proteinase standard, RVV (Russell's viper venom) and rabbit brain thromboplastin, a tissue factor (TF) standard, were purchased from Sigma Chemical Co. (St. Louis, MO). To determine the effect of the peptidyl diazomethyl ketone and peptidyl sulfonium salt inhibitors on CP, the control procoagulants (Papain, RVV and TF), and the assay plasma system, the procoagulant activity of the samples and controls was analyzed with and without the addition of different concentrations of the inhibitors. […] Peptidyl diazomethyl ketone inhibitors were incubated with the procoagulant samples at a final concentration of 400 μM, 200 μM, 100 μM, 10 μM and 1 μM. Peptidyl sulfonium salt inhibitors were incubated with the samples at a final concentration of 800 μM, as well as the same concentrations as the diazomethyl ketones. At the end of the inhibition incubation, each sample was analyzed in the coagulation assay.
Each CP or control sample was adjusted to a concentration such that the procoagulant activity reduced the clotting time of the blank assay plasma from 10% to 30%, within the linear range of the assay (Gordon et al. (1979) J. Natl. Cancer Inst. 62:773-776).

Experiment [4] has as its target T2, papain (Carica papaya, UniProt P00784).
T2 construct: purchased Sigma Chemical Co. (St. Louis, MO)
T2 sequence (P00784 134-345): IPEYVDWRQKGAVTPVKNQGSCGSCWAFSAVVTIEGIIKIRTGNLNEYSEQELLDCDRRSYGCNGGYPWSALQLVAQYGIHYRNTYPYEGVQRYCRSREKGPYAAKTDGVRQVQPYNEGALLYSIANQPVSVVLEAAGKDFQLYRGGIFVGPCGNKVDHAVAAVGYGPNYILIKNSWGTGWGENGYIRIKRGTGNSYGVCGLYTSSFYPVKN
It counts as biochemical. To be noted: 30 min at 25° C. The protocol: (§3) If the volume of the sample was too small, 0.05 ml of the sample was used with proportional reduction in the volume of the other reagents. […] These dilutions of RVV were used to calibrate the assay plasma and to verify linearity of the clotting times over the range of procoagulant activity.
as §1, §2

Experiment [5] deals with RVV (Russell's viper venom). The experiment in a line: one-stage plasma recalcification clotting time assay, RVV control procoagulant. To be noted: 30 min at 25° C.; for percent inhibition of RVV (negative = slight activation): 200 μM peptidyl diazomethyl ketone; for effect on activity of RVV: 400 μM peptidyl sulfonium salt. Format: biochemical. The protocol:
as §3, §1, §2

Experiment [6] relates to control procoagulants (TF, RVV and Papain). The experiment is described as follows: effect on the coagulation controls and the assay plasma. It counts as biochemical. The conditions noted are these: compared with D1-D3 results of FIG. 1. The protocol:
The procoagulant activity of the samples and the controls was measured in a one-stage plasma recalcification clotting time assay using a model 202A clot timer (Heller Laboratories, Santa Rose, CA). […]. If the volume of the sample was too small, 0.05 ml of the sample was used with proportional reduction in the volume of the other reagents. […]. These dilutions of RVV were used to calibrate the assay plasma and to verify linearity of the clotting times over the range of procoagulant activity.
as §1
Papain, a factor X activator and cysteine proteinase standard, RVV (Russell's viper venom) and rabbit brain thromboplastin, a tissue factor (TF) standard, were purchased from Sigma Chemical Co. (St. Louis, MO). To determine the effect of the peptidyl diazomethyl ketone and peptidyl sulfonium salt inhibitors on CP, the control procoagulants (Papain, RVV and TF), and the assay plasma system, the procoagulant activity of the samples and controls was analyzed with and without the addition of different concentrations of the inhibitors. […]; there was no effect of these solvents on the assay plasma activity. Preliminary experiments evaluated the time (15, 30 and 50 min) and temperature (25° C. and 37° C.) of the inhibition reaction; 30 min at 25° C. was selected as the optimum conditions and was used for the subsequent studies. […] At the end of the inhibition incubation, each sample was analyzed in the coagulation assay. […]

Experiment [7] deals with cancer procoagulant (CP). The experiment is described as follows: one-stage plasma recalcification clotting time assay, inhibition of CP procoagulant activity. It counts as biochemical, rabbit. To be noted: for percent inhibition of CP: 30 min at 25° C.
In experiment [8] the test system is isolated rat hepatocytes. The conditions noted are these: 10^-5 M; cited from earlier work.
Experiment [9] concerns the target clostripain (Hathewaya histolytica, UniProt P09870). The conditions noted are these: cited from earlier work.
The test system of experiment [10] is cathepsin L. The conditions noted are these: cathepsin B from rat and human; substrate Z-Phe-Arg-4-methyl-7-coumarylamide; cited from earlier work.
The target of experiment [11] is cathepsin B (Homo sapiens, UniProt P07858). To be noted: cited from earlier work.
Experiment [12] addresses cathepsin L (Homo sapiens, UniProt P07711). The conditions noted are these: cited from earlier work.
For experiment [13], the system named is cancer procoagulant (CP). Format: biochemical, human. The protocol: Fresh human placenta was obtained from the delivery deck, the amnion-chorion membranes were removed from the placental tissue and extracted in 3 to 4 changes of 20 mM veronal buffer (pH 7.4) as described in Gordon et al. (1985) Blood 66:1261-1265. The extracts were purified over an anti-Cp antibody affinity column. The purified CP sample was assayed for procoagulant activity by measuring clotting time of normal and factor VII deficient citrated plasma. […] To assure that there was no tissue factor-factor VIIa activity in the preparation, 5 μl (1.3 mg/ml) of rabbit polyclonal anti-tissue factor antibody was added to the sample and incubated for 30 min. at 25° C.

Sequence of clostripain (P09870 191-526): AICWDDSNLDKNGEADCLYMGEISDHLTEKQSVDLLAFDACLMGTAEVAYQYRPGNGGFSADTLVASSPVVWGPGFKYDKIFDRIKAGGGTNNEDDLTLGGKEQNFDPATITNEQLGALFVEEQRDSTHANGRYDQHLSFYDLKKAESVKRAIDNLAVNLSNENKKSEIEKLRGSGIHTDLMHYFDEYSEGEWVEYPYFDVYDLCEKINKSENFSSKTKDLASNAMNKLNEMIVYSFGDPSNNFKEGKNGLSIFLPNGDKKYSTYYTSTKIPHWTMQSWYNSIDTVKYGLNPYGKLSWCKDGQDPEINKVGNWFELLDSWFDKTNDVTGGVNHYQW
Sequence of clostripain (P09870 51-181): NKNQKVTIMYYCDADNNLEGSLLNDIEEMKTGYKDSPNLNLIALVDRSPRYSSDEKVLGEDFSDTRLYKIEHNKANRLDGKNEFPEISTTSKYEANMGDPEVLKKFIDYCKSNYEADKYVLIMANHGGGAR
Sequence of cathepsin L (Homo sapiens, UniProt P07711) (P07711 114-333, species assumed): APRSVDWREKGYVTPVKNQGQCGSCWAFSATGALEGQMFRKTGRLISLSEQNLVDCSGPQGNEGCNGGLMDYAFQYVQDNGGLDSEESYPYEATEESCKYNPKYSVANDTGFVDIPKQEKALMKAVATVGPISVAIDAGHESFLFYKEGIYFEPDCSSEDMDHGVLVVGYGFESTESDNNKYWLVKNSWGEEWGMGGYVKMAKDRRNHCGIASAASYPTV

With `CC(=O)CC(c1ccccc1)c1c(O)c2ccccc2oc1=O` (stereo not shown) [Warfarin], in [1], the survival result is given as “significant improvement” and the “time to first evidence disease progression” value is listed as “significant prolongation”.
As to `OCCN(CCO)c1nc(N2CCCCC2)c2nc(N(CCO)CCO)ncc2n1` [RA-233, mopidamol], the survival result in experiment [2] is “statistically significant prolongation of survival”.
Regarding `[N-]=[N+]=CC(=O)CNC(=O)C1CCCN1C(=O)OCc1ccccc1` (stereo not shown) [D3, Z-Pro-Gly diazomethyl ketone] (Cbz-[ξP]-Gly-CHN2), the “inhibition of TF” value in experiment [3] is recorded as “no significant inhibition”. For the same molecule, the figures for the “percent inhibition of papain” value in experiment [4] (100 μM inhibitor) and in experiment [4] (200 μM inhibitor) were 15% and 88%, respectively. Besides, the “percent inhibition of RVV (negative = slight activation)” value (“percent inhibition of RVV” for short) in experiment [5] is recorded as -10% to -13%.
Turning to `CC(NC(=O)OCc1ccccc1)C(=O)NC(C)C(=O)N1CCCC1C(=O)C=[N+]=[N-]` (stereo not drawn) [D5, Z-Ala-Ala-Pro diazomethyl ketone] (Cbz-Ala-Ala-Pro-CHN2; configuration not given here), the “effect on the coagulation controls and the assay plasma” value in experiment [6] is given as “essentially the same results”. Besides, in experiment [4] (100 μM inhibitor), the “percent inhibition of papain” value turned out to be 2%. The “percent inhibition of CP” value in [7] (100 μM inhibitor) is on record as about 62%.
`[N-]=[N+]=CC(=O)CNC(=O)C(Cc1ccccc1)NC(=O)OCc1ccccc1` (stereo not shown) [D2, Z-Phe-Gly diazomethyl ketone] (Cbz-[ξF]-Gly-CHN2): the “inhibition of TF” value in [3] is “no significant inhibition”. Further, the “percent inhibition of papain” value in [4] (100 μM inhibitor) is on record as 88%; in experiment [4] (200 μM inhibitor) it was 97%. The “percent inhibition of CP” value in [7] (100 μM inhibitor) turned out to be 97%. The “percent inhibition of RVV” value in experiment [5] was -10% to -13%.
Regarding Z-Phe-Ala-CH2 -S^+ (CH3)2 bromide [S1], the “enhancement of TF activity (negative inhibition)” value in experiment [3] amounted to 5%. The “percent inhibition of papain” value in experiment [4] (10 μM inhibitor) is 55%; in experiment [4] (100 μM inhibitor) it was “completely inhibited”; in experiment [4] (200 μM inhibitor), “completely inhibited”. In addition, the “percent inhibition of CP” value is recorded as “no inhibition” in [7] (10 μM inhibitor), 26% in experiment [7] (100 μM inhibitor), 51% in [7] (200 μM inhibitor) and 62% in experiment [7] (400 μM inhibitor). For the same molecule, the “effect on activity of RVV” value in experiment [5] is “Neither S1 nor S2 affected the activity of RVV”.
With `C[C@H](NC(=O)[C@H](Cc1ccccc1)NC(=O)OCc1ccccc1)C(=O)C=[N+]=[N-]` [D1, Z-Phe-Ala diazomethyl ketone], the “inhibition of TF” value in [3] is listed as “no significant inhibition”. Besides, the “percent inhibition of papain” value worked out at 85% in [4] (100 μM inhibitor) and 97% in [4] (200 μM inhibitor). For the same molecule, the “inhibition of protein synthesis” value in experiment [8] is reported as 21%. The reactivity toward clostripain result in [9] is “absolutely inert”. Moreover, the “affinity for cathepsin L relative to cathepsin B” value in [10] is “about 2000 fold”. Moreover, the “percent inhibition of CP” value in experiment [7] (100 μM inhibitor) was determined as 68%. In addition, the “inhibition of CP by D1 relative to S1 (times greater)” value in experiment [7] (same concentration (100 μM), same peptide) is listed as about 3 times. For the same molecule, in experiment [5], the “percent inhibition of RVV” value is given as -10% to -13%.
With `[N-]=[N+]=CC(=O)C(CCCCN)NC(=O)OCc1ccccc1` (stereo not shown) [Z-Lys diazomethyl ketone], the “inhibition of cathepsin B” value in experiment [11] is listed as “powerful inhibitor”.
Turning to `CC(C)(C)Oc1ccc(C[C@H](NC(=O)[C@H](Cc2ccccc2)NC(=O)OCc2ccccc2)C(=O)C=[N+]=[N-])cc1` [Z-Phe-Tyr(O-t-Bu) diazomethyl ketone] (Cbz-Phe-Tyr(tBu)-CHN2), the “rate of inactivation of cathepsin L relative to cathepsin B” value in experiment [12] is reported as 2.5×10^4.
As to `CC(C)C(NC(=O)CNC(=O)CNC(=O)OCc1ccccc1)C(=O)C=[N+]=[N-]` (stereo not drawn) [D4, Z-Gly-Gly-Val diazomethyl ketone] (Cbz-Gly-Gly-[ξV]-CHN2), in experiment [6], the “effect on the coagulation controls and the assay plasma” value was “essentially the same results”. The “percent inhibition of papain” value in experiment [4] (100 μM inhibitor) was 2%. For the same molecule, the “percent inhibition of CP” value in experiment [7] (100 μM inhibitor) was “about 48%”.
With Z-Phe-Lys-CH2 -S^+ (CH3)2 bromide [S2], the “enhancement of TF activity (negative inhibition)” value in experiment [3] is 8%. The results for the “percent inhibition of papain” value in [4] (10 μM inhibitor), in [4] (100 μM inhibitor) and in experiment [4] (200 μM inhibitor) were 20%, “almost the same effect” and “almost the same effect”, respectively. Further, the “percent inhibition of CP” value in [7] (10 μM inhibitor) is listed as “no inhibition”; in [7] (100 μM inhibitor) it was 33%; in experiment [7] (200 μM inhibitor) it was 54%; in experiment [7] (400 μM inhibitor) it was 72%. The “effect on activity of RVV” value in [5] is reported as “Neither S1 nor S2 affected the activity of RVV”.
`CC(NC(=O)C(C)NC(=O)OCc1ccccc1)C(=O)C=[N+]=[N-]` (stereo not shown) [D6, Z-Ala-Ala diazomethyl ketone]: in experiment [6], the “effect on the coagulation controls and the assay plasma” value is “essentially the same results”. In addition, in experiment [4] (100 μM inhibitor), the “percent inhibition of papain” value is 31%. Moreover, the “percent inhibition of CP” value in experiment [7] (100 μM inhibitor) is listed as 92%.
For the molecule `NC(=O)CI` [iodacetamide, iodoacetamide], the “inhibition of procoagulant activity of purified CP” value in experiment [13] was “all the procoagulant activity was inhibited”.
On to HgCl2 [Hg^++], for which the “inhibition of procoagulant activity of purified CP” value in experiment [13] (1 mM iodoacetamide in water, 0.1 mM HgCl2 in water) is given as “all the procoagulant activity was inhibited”.
